US20060241172A1, “Benzodioxane and benzodioxolane derivatives and uses thereof” (Wyeth, priority 2005, published 2006)
Structures can show the parent of a compound that is named as a salt.

First: CNCC1Oc2cc(F)cc(-c3ccccc3Cl)c2O1 (stereo not drawn) (as salt: hydrochloride) [Compound I-87, 1-[4-(2-Chlorophenyl)-6-fluoro-1,3-benzodioxol-2-yl]-N-methylmethanamine]
Second: CN(C)CC1Oc2cc(F)cc(-c3ccccc3Cl)c2O1 (stereo not drawn) (as salt: hydrochloride) [Compound I-89, 1-[4-(2-chlorophenyl)-6-fluoro-1,3-benzodioxol-2-yl]-N,N-dimethylmethanamine]
The melting point of the first is lower: 132 to 134 °C for the first, 211 to 212 °C for the second.

Compared with `NCC1Oc2cc(F)cc(-c3cccc(Cl)c3)c2O1` (stereo not drawn) (as salt: hydrochloride) [Compound I-78, 1-[4-(3-Chlorophenyl)-6-fluoro-1,3-benzodioxol-2-yl]methanamine], `NCC1Oc2cc(F)cc(-c3ccc(Cl)cc3)c2O1` (stereo not drawn) (as salt: hydrochloride) [Compound I-79, 1-[4-(4-Chloro-phenyl)-6-fluoro-1,3-benzodioxol-2-yl]methanamine] is lower in melting point: 267 to 270 °C for the first, 262 to 264 °C for the second.

First: CNCC1COc2cccc(-c3ccccc3F)c2O1 (stereo not drawn) (as salt: fumarate) [Compound I-18, {[8-(2-Fluorophenyl)-2,3-dihydro-1,4-benzodioxin-2-yl]methyl}methylamine]
Second: CNCC1COc2cccc(-c3ccccc3Cl)c2O1 (stereo not drawn) (as salt: fumarate) [Compound I-21, {[8-(2-Chlorophenyl)-2,3-dihydro-1,4-benzodioxin-2-yl]methyl}methylamine]
The melting point of the first is higher: 191 to 192 °C for the first, 174 to 175 °C for the second.

First: COc1ccccc1-c1cccc2c1OC(CN)CO2 (stereo not drawn) (as salt: fumarate) [Compound I-5, {[8-(2-Methoxyphenyl)-2,3-dihydro-1,4-benzodioxin-2-yl]methyl}amine]
Second: NC[C@H]1COc2cccc(-c3ccccc3Cl)c2O1 (as salt: fumarate) [Compound I-56, 1-[(2S)-8-(2-CHLOROPHENYL)-2,3-DIHYDRO-1,4-BENZODIOXIN-2-YL]METHANAMINE]
The melting point of the first is lower: 186 to 187 °C for the first, 200 to 201 °C for the second.

First: Cc1ccccc1-c1cc(F)cc2c1OC(CN)O2 (stereo not drawn) (as salt: hydrochloride) [Compound I-80, 1-[4-(2-Methyl-phenyl)-6-fluoro-1,3-benzodioxol-2-yl]methanamine]
Second: NCC1Oc2cc(F)cc(-c3ccccc3F)c2O1 (stereo not drawn) (as salt: hydrochloride) [Compound I-83, 1-[4-(2-Fluoro-phenyl)-6-fluoro-1,3-benzodioxol-2-yl]methanamine]
The melting point of the first is lower: 197 to 200 °C for the first, 234 to 235 °C for the second.

Compared with `C[C@]1(CN)COc2cccc(-c3cccc(Cl)c3)c2O1` (as salt: fumarate) [Compound I-50, {[(2S)-8-(3-Chlorophenyl)-2-methyl-2,3-dihydro-1,4-benzodioxin-2-yl]methyl}amine], `C[C@]1(CN)COc2cccc(-c3ccccc3Cl)c2O1` (as salt: fumarate) [Compound I-49, {[(2S)-8-(2-Chlorophenyl)-2-methyl-2,3-dihydro-1,4-benzodioxin-2-yl]methyl}amine] is higher in melting point: 110 to 113 °C for the first, 149 to 152 °C for the second.

First: Cc1cccc(-c2cccc3c2OC(CN)CO3)c1C (stereo not drawn) (as salt: fumarate) [Compound I-10, {[8-(2,3-Dimethylphenyl)-2,3-dihydro-1,4-benzodioxin-2-yl]methyl}amine]
Second: CNCC1COc2cccc(-c3cccc(C)c3C)c2O1 (stereo not drawn) (as salt: fumarate) [Compound I-25, {[8-(2,3-Dimethylphenyl)-2,3-dihydro-1,4-benzodioxin-2-yl]methyl}methylamine]
The melting point of the first is higher: 204 to 205 °C for the first, 194 to 195 °C for the second.

First: NCC1COc2cccc(-c3cccc(Cl)c3Cl)c2O1 (stereo not drawn) (as salt: fumarate) [Compound I-6, {[8-(2,3-Dichlorophenyl)-2,3-dihydro-1,4-benzodioxin-2-yl]methyl}amine]
Second: NC[C@H]1COc2cccc(-c3c(Cl)cccc3Cl)c2O1 (as salt: salt) [Compound I-46, {[(2S)-8-(2,6-Dichlorophenyl)-2,3-dihydro-1,4-benzodioxin-2-yl]methyl}amine]
The melting point of the first is higher: 211 to 212 °C for the first, 165 to 167 °C for the second.

Compared with `NCC1Oc2cc(F)cc(-c3cc(Cl)ccc3Cl)c2O1` (stereo not drawn) (as salt: hydrochloride) [Compound I-81, 1-[4-(2,5-Dichloro-phenyl)-6-fluoro-1,3-benzodioxol-2-yl]methanamine], `NC[C@@H]1Oc2cc(F)cc(-c3c(Cl)cccc3Cl)c2O1` (as salt: hydrochloride) [Compound I-86, 1-[(2R)-4-(2,6-dichlorophenyl)-6-fluoro-1,3-benzodioxol-2-yl]methanamine] is higher in melting point: 204 to 205 °C for the first, 206 to 208 °C for the second.

First: Clc1ccccc1-c1cccc2c1OC(CNC1CC1)CO2 (stereo not drawn) (as salt: fumarate) [Compound I-43, N-{[8-(2-Chlorophenyl)-2,3-dihydro-1,4-benzodioxin-2yl]methyl}cyclopropanamine]
Second: CC(C)NCC1COc2cccc(-c3ccccc3Cl)c2O1 (stereo not drawn) (as salt: fumarate) [Compound I-36, N-{[8-(2-Chlorophenyl)-2,3-dihydro-1,4-benzodioxin-2-yl]methyl}propan-2-amine]
The melting point of the first is lower: 148 to 149 °C for the first, 199 to 200 °C for the second.

First: NC[C@H]1COc2cccc(-c3ccccc3C(F)(F)F)c2O1 (as salt: fumarate) [Compound I-57, 1-{(2S)-8-[2-(trifluoromethyl)phenyl]-2,3-dihydro-1,4-benzodioxin-2-yl}methanamine]
Second: CNCC1COc2cccc(-c3ccccc3C(F)(F)F)c2O1 (stereo not drawn) (as salt: fumarate) [Compound I-20, N-Methyl-1-{8-[2-(trifluoromethyl)phenyl]-2,3-dihydro-1,4-benzodioxin-2-yl}methanamine]
The melting point of the first is higher: 205 to 206 °C for the first, 184 to 185 °C for the second.

Compared with `NC[C@H]1COc2cc(Cl)cc(-c3ccccc3F)c2O1` (as salt: hydrochloride) [Compound I-59, (2S)-[6-Chloro-8-(2-fluoro-phenyl)-2,3-dihydro-benzo[1,4]dioxin-2-yl]-methylamine], `COc1ccccc1-c1cc(Cl)cc2c1O[C@@H](CN)CO2` (as salt: hydrochloride) [Compound I-61, (2S)-[6-Chloro-8-(2-methoxy-phenyl)-2,3-dihydro-benzo[1,4]dioxin-2-yl]-methylamine] is higher in melting point: 176 to 178 °C for the first, 188 to 189 °C for the second.

First: Clc1ccc(-c2cccc3c2OC(CNCC2CC2)CO3)c(Cl)c1 (stereo not drawn) (as salt: fumarate) [Compound I-42, (Cyclopropylmethyl) {[8-(2,4-dichlorophenyl)-2,3-dihydro-1,4-benzodioxin-2-yl]methyl}amine]
Second: NCC1COc2cccc(-c3ccc(Cl)cc3Cl)c2O1 (stereo not drawn) (as salt: fumarate) [Compound I-7, {[8-(2,4-Dichlorophenyl)-2,3-dihydro-1,4-benzodioxin-2-yl]methyl}amine]
The melting point of the first is lower: 155 to 156 °C for the first, 192 to 193 °C for the second.

First: NCC1COc2cccc(-c3cc(F)ccc3F)c2O1 (stereo not drawn) (as salt: fumarate) [Compound I-15, {[8-(2,5-Difluorophenyl)-2,3-dihydro-1,4-benzodioxin-2-yl]methyl}amine]
Second: CNCC1COc2cccc(-c3ccc(F)cc3F)c2O1 (stereo not drawn) (as salt: fumarate) [Compound I-28, {[8-(2,4-Difluorophenyl)-2,3-dihydro-1,4-benzodioxin-2-yl]methyl}methylamine]
The melting point of the first is higher: 189 to 190 °C for the first, 174 to 175 °C for the second.

Compared with `COc1cccc(-c2cc(Cl)cc3c2OC(CN)O3)c1OC` (stereo not drawn) (as salt: hydrochloride) [Compound I-95, [6-Chloro-4-(2,3-dimethoxy-phenyl)-benzo[1,3]dioxol-2-yl]-methylamine], `COc1ccccc1-c1cc(F)cc2c1OC(CN)O2` (stereo not drawn) (as salt: hydrochloride) [Compound I-76, 1-[6-Fluoro-4-(2-methoxyphenyl)-1,3-benzodioxol-2-yl]methanamine] is lower in melting point: 228 to 230 °C for the first, 184 to 186 °C for the second.

First: CNCC1COc2cccc(-c3cccc(OC)c3OC)c2O1 (stereo not drawn) (as salt: fumarate) [Compound I-30, {[8-(2,3-Dimethoxyphenyl)-2,3-dihydro-1,4-benzodioxin-2-yl]methyl}methylamine]
Second: CNCC1COc2cccc(-c3cccc(F)c3F)c2O1 (stereo not drawn) (as salt: fumarate) [Compound I-27, {[8-(2,3-Difluorophenyl)-2,3-dihydro-1,4-benzodioxin-2-yl]methyl}methylamine]
The melting point of the first is lower: 159 to 160 °C for the first, 181 to 182 °C for the second.

First: NC[C@H]1COc2cc(F)cc(-c3c(Cl)cccc3Cl)c2O1 (as salt: salt) [Compound I-47, {[(2S)-8-(2,6-Dichlorophenyl)-6-fluoro-2,3-dihydro-1,4-benzodioxin-2-yl]methyl}amine]
Second: NC[C@H]1Oc2cc(F)cc(-c3c(Cl)cccc3Cl)c2O1 (as salt: hydrochloride) [Compound I-85, 1-[(2S)-4-(2,6-dichlorophenyl)-6-fluoro-1,3-benzodioxol-2-yl]methanamine]
The melting point of the first is lower: 165 to 167 °C for the first, 224 to 225 °C for the second.

First: CNCC1COc2cccc(-c3cc(C)ccc3C)c2O1 (stereo not drawn) (as salt: fumarate) [Compound I-26, {[8-(2,5-Dimethylphenyl)-2,3-dihydro-1,4-benzodioxin-2-yl]methyl}methylamine]
Second: CN(C)CC1COc2cccc(-c3ccc(Cl)cc3Cl)c2O1 (stereo not drawn) (as salt: fumarate) [Compound I-39, {[8-(2,4-Dichlorophenyl)-2,3-dihydro-1,4-benzodioxin-2-yl]methyl}dimethylamine]
The melting point of the first is lower: 174 to 175 °C for the first, 232 to 233 °C for the second.

With `NC[C@H]1COc2cc(Cl)cc(-c3ccc(Cl)cc3Cl)c2O1` (as salt: hydrochloride) [Compound I-64, (2S)-[6-Chloro-8-(2,4-dichloro-phenyl)-2,3-dihydro-benzo[1,4]dioxin-2-yl]-methyl amine] the melting point was 140 °C.

Compound `NCC1Oc2cc(Cl)cc(-c3cc(F)ccc3F)c2O1` (stereo not drawn) (as salt: hydrochloride) [Compound I-99, [6-Chloro-4-(2,5-difluoro-phenyl)-benzo[1,3]dioxol-2-yl]-methylamine] has a melting point greater than 250 °C.
With `Cc1ccccc1-c1cc(Cl)cc2c1O[C@@H](CN)CO2` (as salt: hydrochloride) [Compound I-60, (2S)-[6-Chloro-8-(2-methyl-phenyl)-2,3-dihydro-benzo[1,4]dioxin-2-yl]-methylamine] the melting point was greater than 245 °C.
